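In this assay, cells in 96-well plates receive the compound at five concentrations for 48 hours. Endpoints are linearly interpolated between the surrounding concentrations. Here, GI50 denotes the concentration required for 50% inhibition of growth. TGI: total growth inhibition.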
Tests used:
Test in all cases: NCI-60 cell line screen, 48 h
[1] = test system: SNB-19 CNS
[2] = test system: EKVX NSCLC
[3] = test system: OVCAR-5 ovarian
[4] = test system: IGROV1 ovarian
[5] = test system: MALME-3M melanoma
[6] = test system: RPMI-8226 leukemia
[7] = test system: SR leukemia
[8] = test system: KM12 colon

| SMILES | GI50 [1] | TGI [1] | GI50 [2] | TGI [2] | GI50 [3] | TGI [3] | GI50 [4] | TGI [4] | GI50 [5] | TGI [5] | GI50 [6] | TGI [6] | GI50 [7] | TGI [7] | GI50 [8] | TGI [8] |
| --- | --- | --- | --- | --- | --- | --- | --- | --- | --- | --- | --- | --- | --- | --- | --- | --- |
| C[C@]12CC[C@H](O)CC1=CC[C@@H]1[C@@H]2CC[C@]2(C)C(=O)/C(=C/c3cccc(OCCCn4ccnc4)c3)C[C@@H]12 | 27 µM | 77.3 µM | 21.1 µM | 46.3 µM | 18.1 µM | 34.8 µM | 19.4 µM | 46.2 µM | 23.9 µM | 59.1 µM | 10.1 µM | 31.6 µM | 13.9 µM | 40 µM | 34 µM | > 100 µM |
| COc1cc(OC)c(-c2cc(=O)c3c(OC)c(OC)c(OC)c(OC)c3o2)cc1OC | – | > 100 µM | – | > 100 µM | – | > 100 µM | – | > 100 µM | – | > 100 µM | – | > 100 µM | – | > 100 µM | – | > 100 µM |
| CC(=O)[CH-]C(=O)c1ccccc1.CC(=O)[CH-]C(=O)c1ccccc1.[Nd+3].[OH-].[OH3+] | > 100 µM | > 100 µM | – | – | – | – | > 100 µM | > 100 µM | > 100 µM | > 100 µM | > 100 µM | > 100 µM | – | – | > 100 µM | > 100 µM |
| C[C@@H]1O[C@@H](O[C@H]2C[C@@H](O)[C@]3(CO)C4C(CC[C@]3(O)C2)[C@@]2(O)CC[C@H](C3=CC(=O)OC3)[C@@]2(C)C[C@H]4O)[C@H](O)[C@H](O)[C@H]1O (some centres undefined) | 0.0605 µM | 0.125 µM | 0.0151 µM | 0.0518 µM | 0.0606 µM | 0.127 µM | 0.0273 µM | 0.23 µM | 0.0197 µM | 0.0828 µM | 0.0672 µM | 1.76 µM | 0.0105 µM | 0.0317 µM | 0.0512 µM | 0.132 µM |
| OCC1SC(n2cnc3cncnc32)C(O)C1O (centres undefined) | > 100 µM | > 100 µM | > 100 µM | > 100 µM | > 100 µM | > 100 µM | > 100 µM | > 100 µM | > 100 µM | > 100 µM | > 100 µM | > 100 µM | > 100 µM | > 100 µM | > 100 µM | > 100 µM |
| CC1=CC[C@@H]2[C@@H](CC[C@@]2(C)O)C(C)(C)[C@H]1CC[C@@H]1[C@@]2(C)CCC(=O)C(C)(C)O[C@@H]2CC[C@]1(C)O | – | > 100 µM | – | > 100 µM | – | > 100 µM | – | 76.5 µM | – | – | – | 51.1 µM | – | 59.4 µM | – | 29.6 µM |
| COc1cc2c(cc1OC)C13CCN4CC5=CCOC(CC(=O)O)C(C5CC41)C3N2 (centres undefined) | – | > 100 µM | – | > 100 µM | – | > 100 µM | – | > 100 µM | – | > 100 µM | – | > 100 µM | – | > 100 µM | – | > 100 µM |
| COC1=CC(c2ccc[nH]2)=N/C1=C\c1[nH]c(C)c(C(=O)CCC(=O)Oc2ccc3c(c2)CCC2C3CC[C@]3(C)C(=O)CC[C@@H]23)c1C (some centres undefined) | 17.7 µM | > 100 µM | – | – | 7.88 µM | > 81.6 µM | 8.3 µM | > 100 µM | 29.2 µM | > 100 µM | 5.85 µM | > 100 µM | 0.634 µM | > 100 µM | 5.6 µM | > 100 µM |
| COc1ccc2c(c1)O/C(=C\c1cccc(OCC(=O)Nc3nc4ccccc4s3)c1)C2=O | > 57.8 µM | > 100 µM | 29 µM | > 100 µM | > 84.3 µM | > 100 µM | 0.121 µM | 0.303 µM | 2 µM | 4.37 µM | 4.87 µM | > 100 µM | 0.749 µM | 2.42 µM | 9.61 µM | > 100 µM |
| CO/N=C(\c1ccccc1)c1cnn(-c2ccccc2)c1N | > 25 µM | > 25 µM | – | – | > 25 µM | > 25 µM | > 25 µM | > 25 µM | > 25 µM | > 25 µM | > 25 µM | > 25 µM | > 25 µM | > 25 µM | > 25 µM | > 25 µM |
| O=C(NO)c1ccc(C(=O)NO)cc1 | – | > 100 µM | – | > 100 µM | – | > 100 µM | – | > 100 µM | – | 51.4 µM | – | > 100 µM | – | > 100 µM | – | > 100 µM |
| CN(C(=O)C1CCCCC1)c1ccccc1I(=O)=O | 40.3 µM | > 100 µM | 43.4 µM | > 100 µM | 37.2 µM | > 100 µM | 52.2 µM | > 100 µM | 14.6 µM | 30.9 µM | 12.9 µM | 33.7 µM | 13.7 µM | 36.1 µM | 37.8 µM | > 100 µM |
| O=C1OCC(c2ccc(O)c(O)c2)=C1c1cc(O)c(O)c(O)c1 | 25.3 µM | > 100 µM | 70.6 µM | > 100 µM | 17.7 µM | 34.6 µM | 37.4 µM | > 100 µM | > 100 µM | > 100 µM | 26.2 µM | 79 µM | – | – | 23.8 µM | 55.6 µM |
| c1ccc2c(c1)O[As](O[As]1Oc3ccccc3O1)O2 | 5.56 µM | 19.6 µM | – | – | 5.01 µM | 22.2 µM | 1.56 µM | 10.5 µM | 2.32 µM | 5.21 µM | 1.07 µM | 4.61 µM | 1.61 µM | 7.39 µM | 7.79 µM | 20.6 µM |
| COc1ccc(-c2cc3c4c(nc5ccccc5c4c2)CC(c2cc(OC)c(OC)c(OC)c2)O3)cc1 (centres undefined) | 3.3 µM | 12.8 µM | 5.01 µM | > 100 µM | – | – | 2.66 µM | 12.6 µM | 1.32 µM | 3.87 µM | 3.66 µM | > 100 µM | 2.08 µM | > 100 µM | 3.78 µM | > 100 µM |
| COc1cc(-c2c3c(cn2S(=O)(=O)c2ccccc2)-c2nc(N)sc2CC3)cc(OC)c1OC | 11 µM | > 100 µM | – | – | 4.25 µM | > 100 µM | 2.23 µM | 75.1 µM | 0.449 µM | 38 µM | 0.79 µM | 56 µM | 0.35 µM | 15.6 µM | 0.722 µM | > 100 µM |
| C=CC1CC12C(=O)C1OC2(C)C2C(=O)c3ccccc3C(=O)C12 (centres undefined) | > 47.7 µM | > 84.7 µM | > 100 µM | > 100 µM | > 54.7 µM | > 88.5 µM | > 69.3 µM | > 100 µM | 21.3 µM | 59.1 µM | 28.2 µM | 99.2 µM | – | – | > 45.3 µM | > 80.8 µM |
| CC1OCC2OC(C)OC(C3C4=C(CC(C)(C)CC4=O)OC4=C3C(=O)CC(C)(C)C4)C2O1 (centres undefined) | – | > 100 µM | – | > 100 µM | – | > 100 µM | – | – | – | > 100 µM | – | > 100 µM | – | > 100 µM | – | > 100 µM |
| COc1ccc(-c2nc(-c3nc4ccc(F)cc4[nH]3)cc3c2[nH]c2ccccc23)cc1 | 2.94 µM | > 100 µM | – | – | 4.46 µM | > 100 µM | 2.49 µM | 9.7 µM | 2.33 µM | 8.99 µM | 1.16 µM | 3.92 µM | 3.34 µM | > 100 µM | 2.78 µM | 12.2 µM |
| CC(C)C1CN1CC(O)Cn1ccnc1[N+](=O)[O-] (centres undefined) | – | > 100 µM | – | > 100 µM | – | > 100 µM | – | > 100 µM | – | > 100 µM | – | – | – | – | – | > 100 µM |
| CCC(=O)Sc1ccccc1C(=O)Nc1ccc(Cl)cc1 | 16.6 µM | 68.8 µM | 7.16 µM | 75.2 µM | 15.9 µM | 33.2 µM | 13.7 µM | > 100 µM | 8.76 µM | 51.2 µM | 4.32 µM | 29.3 µM | – | – | 6.69 µM | 36.8 µM |
| COc1ccc(C(CC(=O)c2ccccc2)C(C(=O)c2ccccc2)C(c2ccc(OC)cc2)C2C(=O)NC(=O)NC2=O)cc1 (centres undefined) | 13.7 µM | > 100 µM | 12.5 µM | > 100 µM | 17.4 µM | 56.8 µM | 13.2 µM | > 100 µM | 33.1 µM | > 100 µM | 13.8 µM | > 100 µM | – | – | 19.1 µM | > 100 µM |
| COc1ccc(/C=C2/CN(C(=O)c3ccccc3F)C/C(=C\c3ccc(OC)cc3)C2=O)cc1 | 6.21 µM | 20.7 µM | – | – | 7.55 µM | 28.8 µM | 3.43 µM | 11.3 µM | 5.83 µM | 21.3 µM | 0.242 µM | 0.714 µM | 0.884 µM | 6.33 µM | 1.91 µM | 3.59 µM |
| O=C1c2ccn(CCCCN3CCOCC3)c2C(=O)c2c1c(O)c1ccccc1c2O | 19.6 µM | 60.4 µM | – | – | 11.1 µM | 23.8 µM | 20.5 µM | > 100 µM | – | – | 3.53 µM | > 100 µM | 4.55 µM | 33.6 µM | 5.21 µM | 18.8 µM |
| Cc1ccc(S(=O)(=O)N(C)C)cc1[N+](=O)[O-] | > 100 µM | > 100 µM | > 100 µM | > 100 µM | > 100 µM | > 100 µM | 59.7 µM | > 100 µM | > 100 µM | > 100 µM | > 100 µM | > 100 µM | – | – | > 100 µM | > 100 µM |

Reference: PubChem BioAssay (NCI)
